Structures can show the parent of a compound that is named as a salt. Where two headings read alike, the source gives them in different places. Values belong to the molecule of their own block, whether it stands above or below them.
Columns and labels:
[1] = tested on: matrix metalloproteinase-9 (MMP-9) synthesis; experiment: Stenotic valve tissue culture, gelatinase (MMP-2 and MMP-9) assay; assay type: cell-based
Procedure: The study was conducted using tissue collected from four surgically removed, stenotic tricuspid valves. […] Gelatinases (MMP-2 and MMP-9) from the valve tissue samples were assayed. The analyzed bands were related to the total protein measured using a Bio-Rad DC Protein Assay Kit (Bio-Rad, Hercules, Calif.).

[2] = single dose of two 100 mg minocycline HCl tablets, adult human; cited from earlier work
[3] = Serum levels after oral dosing in humans; settings: dose of about 10 to about 20 mg/day
[4] = 250 mg tetracycline HCl every six hours over a twenty-four hour period; cited from earlier work
[5] = 1 μM, stenotic tricuspid valve tissue incubated for ten days

Structure (SMILES): CN(C)[C@@H]1C(O)=C(C(N)=O)C(=O)[C@@]2(O)C(O)=C3C(=O)c4c(O)cccc4[C@@](C)(O)[C@H]3C[C@@H]12 [tetracycline]
- MMP-9 inhibitory effect [1, 5]: no significant inhibitory effect
- expression of MMP-9 / MMP-9 synthesis ([1]; 30 μM, stenotic tricuspid valve tissue incubated for ten days): had an inhibitory effect on MMP-9 synthesis, but only at the end of the culture

Structure (SMILES): CN(C)c1ccc(O)c2c1C[C@H]1C[C@H]3[C@H](N(C)C)C(O)=C(C(N)=O)C(=O)[C@@]3(O)C(O)=C1C2=O [minocycline HCl]
- minocycline serum level (average) [2]: 2.24 µg/mL

- MMP-9 inhibitory effect [1, 5]: inhibitory effect was seen
Structure (SMILES): CC1c2cccc(O)c2C(=O)C2=C(O)C3(O)C(=O)C(C(N)=O)=C(O)CC3C(O)C21 (stereo not drawn) [CMT-8, 4-dedimethylaminodoxycycline]

Structure (SMILES): NC(=O)C1=C(O)C[C@@H]2C[C@@H]3Cc4cccc(O)c4C(=O)C3=C(O)[C@]2(O)C1=O [CMT-3, 6-demethyl-6-deoxy-4-de(dimethylamino)tetracycline]
- MMP-9 inhibitory effect [1]: inhibitory effect was seen
- comparative efficiency of impact on MMP-9 synthesis [1]: most efficient inhibitor of MMP-9 synthesis
- expression of MMP-9 / MMP-9 synthesis [1]: decreased significantly from day 6 to the end of the culture
- serum levels in humans [3]: about 1.0 μg/ml

Structure (SMILES): CN(C)[C@@H]1C(O)=C(C(N)=O)C(=O)[C@@]2(O)C(O)=C3C(=O)c4c(O)cccc4[C@@](C)(O)[C@H]3C[C@@H]12 [tetracycline HCl]
- peak plasma concentration [4]: approximately 3 μg/ml

— patent US20100137261A1, “Method for treating aortic stenosis with non-antibacterial tetracycline formulations” (priority 2004, published 2010)
